Assay results taken from patent publication US20200291391A1, “CROSS-LINKED EPITOPES AND METHODS OF USE THEREOF” (Indi Molecular, Inc., priority 2019, published 2020).
“Also recorded” adds a separate entry of the source. Where a SMILES comes first, the peptide text is derived from it. Bridges are numbered along the chain shown (N, C = ends). Triazole bridges read from a SMILES are 1,4-linked. Where no end group is shown, it is not given here. [ ]: non-standard residue; d: D form. Lys(N3) = [N-]=[N+]=NCCCC[C@H](N)C(=O)O; Pra = C#CC[C@H](N)C(=O)O

Experiments:
CD8+SupT1 cells = assay: Flow cytometry binding to CD8+ cells; assay type: cell-based; settings: for selective binding to CD8+ cells in flow cytometry: SupT1 (CD8+) vs Jurkat (CD8-) cells, FIG. 11; for binding to CD8+SupT1 cells by flow cytometry: with the 1kPEG linker
Protocol: (§1) Three hits were left after this screening (Table 3). These hits were assessed in solid phase ELISA and in flow cytometry experiments.
(§2) Binding of krsah (SEQ ID NO:27) was detected on both CD8+SupT1 cells and CD8−Jurkat cells. The mean fluorescence intensity ratio to each of the ligands tfpkk (SEQ ID NO:21), krsah (SEQ ID NO:27), and snprk (SEQ ID NO:28) was determined (Table 4). The mean fluorescence intensity ratio of different amounts of the ligand tfpkk (SEQ ID NO:21) was determined (Table 5).
(§3) Binding of Biotin-1kPEG-tfpkk (SEQ ID NO:21) to CD8+SupT1 cells or CD8−Jurkat was performed at room temperature (RT) or 4° C.
(§4) Concentration of biotin-1kPEG-tfpkk (SEQ ID NO:21) and -nfyrr (SEQ ID NO:32) was titrated on SupT1 and Jurkat cells. The biotin-1kPEG-ligands were incubated with CD8+SupT1 cells and CD8−Jurkat cells at a concentrations of […].

CD8−Jurkat cells = assay: Flow cytometry binding to CD8- cells; assay type: cell-based; settings: with the 1kPEG linker
Protocol: as §1, §2, §3, §4

epitope B2 = biological target: T1, epitope B2 (Homo sapiens, UniProt P01732, L47X); assay: Epitope bound by ligand; assay type: binding
T1 construct: host or cells: synthetic peptide (per the listing)
Protocol: Epitope B2 ligand tfpkk (SEQ ID NO:21) and the three hit ligands selected against CD8 epitopes A2, B2, H, and J were tested for binding to CD8+ and CD8− cells by flow cytometry.

[1] = biological target: T2, CD8 epitopes A, B, C, D, and E (Homo sapiens, UniProt P01732, M123X); assay: Bead-coupled alkyne peptide screened with azide- and biotin-containing epitopes, alkaline phosphatase-streptavidin development; assay type: binding; settings: D, and E tested
T2 construct: host or cells: synthetic peptide (per the listing)
Protocol: The epitope E ligand used in the biligand is tfpkk (SEQ ID NO:21). It was determined that tfpkk (SEQ ID NO:21) binds to epitope E by screening an alkyne-containing tfpkk peptide (SEQ ID NO:21) coupled to a bead (FIG. 8) with azide- and biotin-containing epitopes A, B, C, D, and E (FIG. 9). The epitopes used in the screen were: Epitope A (a.a. 1-10): Biotin-PEG3-[Az4]-SQFRVSPLDR (SEQ ID NO:22); Epitope B (a.a. 24-32): Biotin-PEG3-[Az4]-VLLSNPTSG (SEQ ID NO:23); Epitope C (a.a. 58-77): Biotin-PEG3-KAAEGLDTQ-[Az4]-FSGKRLGDTF (SEQ ID NO:24); Epitope D (a.a. 68-83): Biotin-PEG3-FSGKRL-[Az4]-DTFVLTLSD (SEQ ID NO:25); Epitope E (a.a. 95-110): Biotin-PEG3-SALSNSI-[Az4]-YFSHFVPV (SEQ ID NO:26).
This is in agreement with docking calculations of binding affinities of the epitopes to tfpkk (SEQ ID NO:21) and a control peptide (krsah; SEQ ID NO:27) (Table 2).

epitope bound (epitope B2)	color development of beads with alkaline phosphatase-linked streptavidin [1]	Molecule	selective binding to CD8+ cells in flow cytometry (CD8+SupT1 cells)	binding to CD8−Jurkat cells by flow cytometry (CD8−Jurkat cells)	binding to CD8+SupT1 cells by flow cytometry (CD8+SupT1 cells)
–	–	nsprw: CD8 ligand hit of four epitope cocktail screening ([dN][dS][dP][dR][dW])	weak (and weakly selective) binding to CD8+ cells	–	–
–	–	herlk: CD8 ligand hit of four epitope cocktail screening ([dH][dE][dR][dL][dK])	weakly selective binding to CD8+ cells	–	–
–	–	krsah: CD8 ligand hit; control peptide in docking ([dK][dR][dS][dA][dH])	–	detected; also recorded: also observed	can be detected
bind to epitope B2	–	C[C@H](O)[C@H]1NC(=O)[C@@H](Cc2ccc(O)cc2)NC(=O)[C@@H](Cc2c[nH]cn2)NC(=O)[C@@H](CCCCN)NC(=O)[C@@H](N)Cc2cn(nn2)CCCC[C@@H](C(N)=O)NC(=O)[C@@H](CC(N)=O)NC1=O [khytn] (H-[Pra][dK][dH][dY][dT][dN][Lys(N3)]-NH2; triazole 1-7; N-terminus assumed)	–	–	–
bind to epitope B2	color only when epitope E was used	tfpkk: CD8 ligand peptide; epitope E ligand used in the biligand ([dT][dF][dP][dK][dK])	–	little binding	observed
